Measurements: PubChem BioAssay AID1259407 (Chemical Carcinogenesis Research Information System (CCRIS), 2018)
Active and inactive are the calls of the source. No rule for the calls is given here.

System: CCRIS mutagenicity, Ames/micronucleus/aberration tests
Test: CCRIS mutagenicity studies
[1] = Test System: AMES SALMONELLA TYPHIMURIUM, Strain/Indicator: TA97, Metabolic Activation: NONE, Method: PREINCUBATION
[2] = Test System: AMES SALMONELLA TYPHIMURIUM, Strain/Indicator: TA98, Metabolic Activation: NONE, Method: PREINCUBATION
[3] = Test System: AMES SALMONELLA TYPHIMURIUM, Strain/Indicator: TA100, Metabolic Activation: NONE, Method: PREINCUBATION
[4] = Test System: E.COLI, Strain/Indicator: WP2UVRA/PKM101, Metabolic Activation: NONE, Method: PREINCUBATION
[5] = Test System: AMES SALMONELLA TYPHIMURIUM, Strain/Indicator: TA98, Metabolic Activation: NONE, Method: STANDARD PLATE
[6] = Test System: AMES SALMONELLA TYPHIMURIUM, Strain/Indicator: TA98, Metabolic Activation: RAT, LIVER, S-9, AROCLOR 1254, Method: STANDARD PLATE
[7] = Test System: AMES SALMONELLA TYPHIMURIUM, Strain/Indicator: TA100, Metabolic Activation: NONE, Method: STANDARD PLATE
[8] = Test System: AMES SALMONELLA TYPHIMURIUM, Strain/Indicator: TA100, Metabolic Activation: RAT, LIVER, S-9, AROCLOR 1254, Method: STANDARD PLATE

CCCCCCCCCCCCCC(=O)O
mutagenic call (Test System: AMES SALMONELLA TYPHIMURIUM, Strain/Indicator: TA97, Metabolic Activation: HAMSTER, LIVER, S-9, AROCLOR 1254 (10 OR 30%), Method: PREINCUBATION): inactive; negative
mutagenic call [1]: inactive; negative
mutagenic call (Test System: AMES SALMONELLA TYPHIMURIUM, Strain/Indicator: TA97, Metabolic Activation: RAT, LIVER, S-9, AROCLOR 1254 (10%), Method: PREINCUBATION): inactive; negative
mutagenic call (Test System: AMES SALMONELLA TYPHIMURIUM, Strain/Indicator: TA97, Metabolic Activation: RAT, LIVER, S-9, AROCLOR 1254 (30%), Method: PREINCUBATION): inactive; negative
mutagenic call (Test System: AMES SALMONELLA TYPHIMURIUM, Strain/Indicator: TA98, Metabolic Activation: HAMSTER, LIVER, S-9, AROCLOR 1254 (10 OR 30%), Method: PREINCUBATION): inactive; negative
mutagenic call [2]: inactive; negative
mutagenic call (Test System: AMES SALMONELLA TYPHIMURIUM, Strain/Indicator: TA98, Metabolic Activation: RAT LIVER S-9, PHENOBARBITAL AND BETA-NAPHTHOFLAVONE, Method: PREINCUBATION): inactive; negative
mutagenic call (Test System: AMES SALMONELLA TYPHIMURIUM, Strain/Indicator: TA98, Metabolic Activation: RAT, LIVER, S-9, AROCLOR 1254 (10 OR 30%), Method: PREINCUBATION): inactive; negative
mutagenic call (Test System: AMES SALMONELLA TYPHIMURIUM, Strain/Indicator: TA100, Metabolic Activation: HAMSTER, LIVER, S-9, AROCLOR 1254 (10%), Method: PREINCUBATION): inactive; negative
mutagenic call (Test System: AMES SALMONELLA TYPHIMURIUM, Strain/Indicator: TA100, Metabolic Activation: HAMSTER, LIVER, S-9, AROCLOR 1254 (30%), Method: PREINCUBATION): inactive; negative
mutagenic call [3]: inactive; negative
mutagenic call (Test System: AMES SALMONELLA TYPHIMURIUM, Strain/Indicator: TA100, Metabolic Activation: RAT LIVER S-9, PHENOBARBITAL AND BETA-NAPHTHOFLAVONE, Method: PREINCUBATION): inactive; negative
mutagenic call (Test System: AMES SALMONELLA TYPHIMURIUM, Strain/Indicator: TA100, Metabolic Activation: RAT, LIVER, S-9, AROCLOR 1254 (10%), Method: PREINCUBATION): inactive; negative
mutagenic call (Test System: AMES SALMONELLA TYPHIMURIUM, Strain/Indicator: TA100, Metabolic Activation: RAT, LIVER, S-9, AROCLOR 1254 (30%), Method: PREINCUBATION): inactive; negative
mutagenic call (Test System: AMES SALMONELLA TYPHIMURIUM, Strain/Indicator: TA1535, Metabolic Activation: HAMSTER, LIVER, S-9, AROCLOR 1254 (10 OR 30%), Method: PREINCUBATION): inactive; negative
mutagenic call (Test System: AMES SALMONELLA TYPHIMURIUM, Strain/Indicator: TA1535, Metabolic Activation: NONE, Method: PREINCUBATION): inactive; negative
mutagenic call (Test System: AMES SALMONELLA TYPHIMURIUM, Strain/Indicator: TA1535, Metabolic Activation: RAT, LIVER, S-9, AROCLOR 1254 (10 OR 30%), Method: PREINCUBATION): inactive; negative
mutagenic call (Test System: AMES SALMONELLA TYPHIMURIUM, Strain/Indicator: TA1537, Metabolic Activation: HAMSTER, LIVER, S-9, AROCLOR 1254 (10 OR 30%), Method: PREINCUBATION): inactive; negative
mutagenic call (Test System: AMES SALMONELLA TYPHIMURIUM, Strain/Indicator: TA1537, Metabolic Activation: NONE, Method: PREINCUBATION): inactive; negative
mutagenic call (Test System: AMES SALMONELLA TYPHIMURIUM, Strain/Indicator: TA1537, Metabolic Activation: RAT LIVER S-9, PHENOBARBITAL AND BETA-NAPHTHOFLAVONE, Method: PREINCUBATION): inactive; negative
mutagenic call (Test System: AMES SALMONELLA TYPHIMURIUM, Strain/Indicator: TA1537, Metabolic Activation: RAT, LIVER, S-9, AROCLOR 1254 (10 OR 30%), Method: PREINCUBATION): inactive; negative
mutagenic call [4]: inactive; negative
mutagenic call (Test System: E.COLI, Strain/Indicator: WP2UVRA/PKM101, Metabolic Activation: RAT LIVER S-9, PHENOBARBITAL AND BETA-NAPHTHOFLAVONE, Method: PREINCUBATION): inactive; negative

C[C@]12CCC(=O)C=C1C=C[C@@H]1[C@@H]2CC[C@@]2(C)[C@H]1CC[C@@]2(O)CCC(=O)O
mutagenic call (End Point: IN VITRO MICRONUCLEUS, Test System: HUMAN PERIPHERAL LYMPHOCYTES, Metabolic Activation: NONE): inactive; negative
mutagenic call (End Point: IN VITRO MICRONUCLEUS, Test System: HUMAN PRIMARY HEPATOCYTES (FEMALE), Metabolic Activation: NONE): inactive; negative
mutagenic call (End Point: IN VITRO MICRONUCLEUS, Test System: RAT PRIMARY HEPATOCYTES (MALE/FEMALE), Metabolic Activation: NONE): active; positive

Nc1ncnc2nc[nH]c12
mutagenic call (Test System: AMES SALMONELLA TYPHIMURIUM, Strain/Indicator: TA97, Metabolic Activation: NONE, Method: STANDARD PLATE): inactive; negative
mutagenic call (Test System: AMES SALMONELLA TYPHIMURIUM, Strain/Indicator: TA97, Metabolic Activation: RAT, LIVER, S-9, AROCLOR 1254, Method: STANDARD PLATE): inactive; negative
mutagenic call [5]: inactive; negative
mutagenic call [6]: active; positive
mutagenic call [7]: inactive; negative
mutagenic call [8]: inactive; negative

CC(CCC(=O)O)(c1ccc(O)cc1)c1ccc(O)cc1
mutagenic call (Test System: MOUSE LYMPHOMA, Strain/Indicator: L5178Y (TK+/TK-), Metabolic Activation: NONE, Method: SUSPENSION/PLATE): active; positive
mutagenic call (Test System: MOUSE LYMPHOMA, Strain/Indicator: L5178Y (TK+/TK-), Metabolic Activation: RAT LIVER S-9, AROCLOR, Method: SUSPENSION/PLATE): active; positive

CCCc1cc2ccccc2c2ccc3c(c12)C1OC1C(O)C3O (stereo unspecified)
mutagenic call [3]: inactive; negative

O=CN(O)c1ccc(Cl)cc1
mutagenic call [5]: inactive; negative
mutagenic call [6]: active; positive
mutagenic call [7]: inactive; negative
mutagenic call [8]: active; positive

COC(=O)c1ccccc1N
mutagenic call [1]: inactive; negative
mutagenic call (Test System: AMES SALMONELLA TYPHIMURIUM, Strain/Indicator: TA97, Metabolic Activation: RAT, LIVER, S-9, AROCLOR 1254, Method: PREINCUBATION): inactive; negative
mutagenic call [2]: inactive; negative
mutagenic call (Test System: AMES SALMONELLA TYPHIMURIUM, Strain/Indicator: TA98, Metabolic Activation: S-9, Method: PREINCUBATION): inactive; negative
mutagenic call [3]: inactive; negative
mutagenic call (Test System: AMES SALMONELLA TYPHIMURIUM, Strain/Indicator: TA100, Metabolic Activation: S-9, Method: PREINCUBATION): inactive; negative
mutagenic call (Test System: AMES SALMONELLA TYPHIMURIUM, Strain/Indicator: TA102, Metabolic Activation: NONE, Method: PREINCUBATION): inactive; negative
mutagenic call (Test System: AMES SALMONELLA TYPHIMURIUM, Strain/Indicator: TA102, Metabolic Activation: RAT, LIVER, S-9, AROCLOR 1254, Method: PREINCUBATION): inactive; negative
mutagenic call (Test System: UDS RODENT HEPATOCYTES, Strain/Indicator: THY INCORP (NON-S-PHASE), Metabolic Activation: NONE, Method: AUTORADIOGRAPHY): inactive; negative

COc1ccc(Cc2cnc(N)nc2N)cc1OC
mutagenic call (Test System: AMES SALMONELLA TYPHIMURIUM, Strain/Indicator: TA98, Metabolic Activation: HAMSTER, LIVER, S-9, PHENOBARBITAL AND BETA-NAPHTHOFLAVONE, Method: PREINCUBATION): inactive; negative
mutagenic call [2]: inactive; negative
mutagenic call (Test System: AMES SALMONELLA TYPHIMURIUM, Strain/Indicator: TA98, Metabolic Activation: RAT, LIVER, S-9, PHENOBARBITAL AND BETA-NAPHTHOFLAVONE, Method: PREINCUBATION): inactive; negative
mutagenic call (Test System: AMES SALMONELLA TYPHIMURIUM, Strain/Indicator: TA100, Metabolic Activation: HAMSTER, LIVER, S-9, PHENOBARBITAL AND BETA-NAPHTHOFLAVONE, Method: PREINCUBATION): active; positive
mutagenic call [3]: inactive; negative
mutagenic call (Test System: AMES SALMONELLA TYPHIMURIUM, Strain/Indicator: TA100, Metabolic Activation: RAT, LIVER, S-9, PHENOBARBITAL AND BETA-NAPHTHOFLAVONE, Method: PREINCUBATION): inactive; negative
mutagenic call [4]: inactive; negative
mutagenic call (Test System: E.COLI, Strain/Indicator: WP2UVRA/PKM101, Metabolic Activation: RAT LIVER S-9, PHENOBARBITAL AND 5,6-BENZOFLAVONE, Method: PREINCUBATION): inactive; negative
